Source: US20230355705A1, “DISCOVERY OF YEATS2 YEATS DOMAIN INHIBITORS AS NOVEL ANTI-CANCER AGENTS” (The University of Hong Kong, priority 2022, published 2023)
pIC50: −log10 of the molar value. Non-standard residues stand in square brackets, D forms with d. Residues, ends and D or L forms follow the SMILES beside them. *: point of attachment. Benzofuran(2-CO) = O=C(c1cc2ccccc2o1)*; X1 = O=C(c1cc2ccc(Br)cc2o1)*; NMeA = CN[C@@H](C)C(=O)O; Ms = CS(=O)(=O)*

Target: T1, YEATS2 YEATS domain (Homo sapiens, UniProt Q9ULM3)
T1 construct: 201-332 containing an N-terminal 10×His-SUMO tag was overexpressed in Escherichia coli BL21 (DE3); 10×His-SUMO (N, cleaved yes); made in house; host or cells: Escherichia coli BL21 (DE3)
T1 sequence (Q9ULM3 201-332 limits assumed): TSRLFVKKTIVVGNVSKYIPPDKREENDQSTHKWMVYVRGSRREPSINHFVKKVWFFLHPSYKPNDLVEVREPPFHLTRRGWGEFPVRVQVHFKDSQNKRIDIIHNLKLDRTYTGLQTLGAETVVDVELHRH
Experiment: competitive photo-cross-linking assay
Assay type: binding
Protocol: The probes in the absence or presence of different concentrations of competitors were incubated with recombinant proteins (5 or 20 ng/µL) in binding buffer (50 mM HEPES, 150 mM NaCl, 2 mM MgCl2, 0.1% Tween-20, 20% glycerol, pH 7.5, with 50 ng/µL BSA) for 10 min at 4° C. Then, the samples were irradiated at 365 nm using UV lamp for 20 min in 96-well on ice.
To the prepared photo-cross-linking samples, we added 100 µM rhodamine-N3 for in-gel fluorescence (10 mM stock in DMSO), followed by 1 mM TCEP (freshly prepared 50 mM stock in H2O) and 100 µM TBTA (10 mM stock in DMSO); finally, the reactions were initiated by the addition of 1 mM CuSO4 (freshly prepared 50 mM stock in H2O). The reactions were incubated for 1 h at room temperature (22 to 25° C.) with regular vortexing. The reactions were quenched by adding 5 volumes of ice-cold acetone and placed at — 20° C. overnight to precipitate proteins.
Samples after protein precipitation were centrifuged at 13,000 × g for 5 min at 4° C. The supernatant was discarded, and the pellet was washed with ice-cooled acetone and air-dried for 10 min. The proteins were resuspended in 1 × LDS sample loading buffer (Invitrogen, Waltham, MA) with 50 mM DTT and heated at 95° C. for 8 min. Samples were then resolved by SDS-PAGE. […]
YEATS domain of YEATS2 is newly identified as histone benzoylation reader. […]

SMILES | pIC50 (Table 2) | inhibitory activity / potency against YEATS2 YEATS (in words)
C[C@H](NC(=O)[C@H](CO)NC(=O)[C@H](CCCCNC(=O)c1cc2ccccc2o1)NS(C)(=O)=O)C(=O)N1CCC[C@H]1C(N)=O [MsKSAP] (Ms-K(Benzofuran(2-CO))SAP-NH2) | 6.22 | 
C[C@@H](C(=O)N1CCC[C@H]1C(N)=O)N(C)C(=O)[C@H](CO)NC(=O)[C@H](CCCCNC(=O)c1cc2ccc(Br)cc2o1)NS(C)(=O)=O [HC18] (Ms-K(X1)S[NMeA]P-NH2) |  | maintained the inhibitory activity
